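Where inhibition never reached the appropriate level, the endpoint shown equals the highest concentration tested. Otherwise, values were interpolated linearly from a five-concentration, 48-hour dose response in 96-well plates. GI50 = concentration required for 50% inhibition of growth. TGI: total growth inhibition.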 Where only a bound is given, the exact number is not on record here.

Data on eight compounds can be found in PubChem BioAssay (NCI).

Test systems include P388 leukemia; P388/ADR leukemia; SN12K1 renal; BT-549 breast; MDA-N; T-47D breast.
What all share (experiment): NCI tumour cell line growth inhibition, 48 h

For the compound `O=C(O)C1CCC(=O)N1S(=O)(=O)c1ccccc1` (stereo unspecified), the TGI with P388 leukemia, with P388/ADR leukemia and in the assay with SN12K1 renal was > 100 µM each time.
As for `CC(=O)C=NCC(=O)O`, the TGI in the assay with BT-549 breast, with MDA-N and in the assay with T-47D breast was > 100 µM in each case.
As to `COc1ccc(-c2nn(-c3cccc(NC(=O)Nc4ccccc4)c3)cc2-c2ccncc2)cc1Cl`, in the assay with T-47D breast, the GI50 was 2.19 µM and the TGI is 5.39 µM.
In the case of `NC1(C(=O)O)CCc2ccc(N(CCCl)CCCl)cc2C1` (stereo unspecified), the TGI in the assay with P388 leukemia is 7.27 µM; in the assay on P388/ADR leukemia, 35.1 µM; in the assay with SN12K1 renal, > 100 µM.
For `CCC(=O)NC(Nc1cccc(F)c1)(C(F)(F)F)C(F)(F)F`, the TGI in the assay on BT-549 breast, in the assay on MDA-N and in the assay on T-47D breast was > 100 µM throughout.
For the compound `CN1C[C@H]2[C@@H](C1=O)[C@H](c1ccccc1)ON2C`, the TGI in the assay with MDA-N and in the assay on T-47D breast was > 100 µM each time.
Regarding `Clc1ccc(CNc2nc(Cl)c3[nH]cnc3n2)cc1Cl`, the TGI is 84.5 µM in the assay with BT-549 breast, > 100 µM with MDA-N and 51.3 µM in the assay with T-47D breast.
On to `Fc1ccc(-c2nn3c(-c4cc(C(F)(F)F)cc(C(F)(F)F)c4)nnc3s2)cc1`, for which, in the assay with BT-549 breast, the GI50 is > 50 µM and the TGI was > 50 µM.
